In patent publication US9676789B2, “Aminated derivative of homoharringtonine, preparation method therefor, and application thereof” (HANGZHOU BENSHENG PHARMACEUTICAL CO., LTD., priority 2011, dated 2017):
In brackets after ≈: the same amount, converted by molar mass.

Experiments:
[1] = test system: RPMI8226 (multiple myeloma); experiment: MTT multiple myeloma cell growth inhibition, 72 h; assay type: cell-based, human
Procedure, shortened: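 Viability determined by MTT after 72 h of compound exposure at 37° C under 5% CO2. Myeloma RPMI8226 cells were seeded at 6000 per well in 1640 medium containing 10% fetal bovine serum.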

[2] = test system: PANC-1 (pancreatic cancer); experiment: MTT solid tumor cell growth inhibition, 72 h; assay type: cell-based, human; conditions: Homo sapiens, PANC-1, 72 h
Procedure, shortened: (§1)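 Percent cell viability comes from the MTT method, normalised to untreated control wells as 100%. Compounds at varying concentrations were left on the cells for 72 h after a 24 h settling period, with 4000 cells seeded per well in 10% FBS-supplemented DMEM high glucose.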

MG63 (osteosarcoma) = experiment: MTT solid tumor cell growth inhibition, 72 h; assay type: cell-based, human; conditions: Homo sapiens, MG 63, 72 h
Procedure, shortened: as §1

[3] = test system: SK-OV-3 (ovarian cancer cell); experiment: MTT solid tumor cell growth inhibition, 72 h; assay type: cell-based, human; conditions: Homo sapiens, SK-OV-3, 72 h
Procedure, shortened: as §1

[4] = test system: CNE (nasopharyngeal carcinoma cell); experiment: MTT solid tumor cell growth inhibition, 72 h; assay type: cell-based, human; conditions: Homo sapiens
Procedure, shortened: as §1

[5] = test system: CaES-17 (esophageal cancer cell); experiment: MTT solid tumor cell growth inhibition, 72 h; assay type: cell-based, human; conditions: Homo sapiens, CaEs17, CaES-17, 72 h
Procedure, shortened: as §1

PC-3 (prostate cancer) = experiment: MTT solid tumor cell growth inhibition, 72 h; assay type: cell-based, human; conditions: Homo sapiens, PC-3, 72 h
Procedure, shortened: as §1

[6] = test system: U87 MG (malignant glioma cell); experiment: MTT solid tumor cell growth inhibition, 72 h; assay type: cell-based, human; conditions: Homo sapiens, U-87 MG
Procedure, shortened: as §1

[7] = test system: A549, PANC-1, Becap37, MG63, Huh7, RKO, Hela, CaES-17, CNE, Hep-2, PC-3 and SK-OV-3; experiment: Anti-human solid tumor effect, summary over cell lines; assay type: cell-based; conditions: result in words, summary of Table 2
Procedure: Human solid tumor cell lines: Hep-2 ([…]), A549 (human lung cancer), CaES-17 (esophageal cancer cell), PC-3 (prostate cancer), CNE (nasopharyngeal carcinoma cell), and SK-OV-3 (ovarian cancer cell), all of which are purchased from China Center For Type Culture Collection; RKO (human colon adenocarcinoma cell), MGC 803 (human gastric cancer cell), MG63 (osteosarcoma) and U87 MG (malignant glioma cell), all of which are purchased from Fuxiang Bio-tech Co. Ltd., Shanghai, China; PANC-1 (pancreatic cancer), Huh7 (human liver cancer cell), Becap37 (human breast cancer cell), and Hela (human cervical cancer cell), all of which are donated by Cancer Research Institute of Zhejiang University, China.
Obtaining 4000 well-growing human solid tumor cells and inoculating them into wells of a 96-well cell culture plate. The culture medium is DMEM High Glucose cell culture medium containing 10% fetal bovine serum. The plate is placed in a carbon dioxide cell incubator (5% CO2) at 37° C. and incubating for 24 hours. After adding the homoharringtonine derivatives of different concentration and mixing uniformly, the plate is placed in a carbon dioxide cell incubator (5% CO2) at 37° C. and incubating for 72 hours. Then the viable cell concentration is determined by the MTT method and the cell viability (%) after drug treatment is calculated. In this experiment, the cell viability of control group (not treated with any compound) is set as 100%.

[8] = test system: Kasumi-1 (acute myeloid leukemia M2 type, AML-M2); experiment: MTT leukemia cell growth inhibition, 72 h; assay type: cell-based, human; conditions: Homo sapiens, Kasumi-1, 72 h
Procedure, shortened: (§2)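 Using 6000 leukemia cells per well in 1640 medium supplemented with 10% fetal bovine serum, homoharringtonine derivatives at different concentrations were applied for 72 h, then viability was assessed by MTT.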

[9] = test system: H9 (acute lymphoblastic leukemia, ALL); experiment: MTT leukemia cell growth inhibition, 72 h; assay type: cell-based, human; conditions: Homo sapiens, H9, 72 h
Procedure, shortened: as §2

[10] = test system: K562/adr (drug-resistant, chronic myeloid leukemia, CML); experiment: MTT leukemia cell growth inhibition, 72 h; assay type: cell-based, human; conditions: Homo sapiens, K562/Adr
Procedure, shortened: as §2

[11] = test system: Jurkat (acute lymphoblastic leukemia, ALL); experiment: MTT leukemia cell growth inhibition, 72 h; assay type: cell-based, human; conditions: Homo sapiens
Procedure, shortened: as §2

[12] = test system: NB4 (acute promyelocytic leukemia, AML); experiment: MTT leukemia cell growth inhibition, 72 h; assay type: cell-based, human; conditions: Homo sapiens, NB4, 72 h
Procedure, shortened: as §2

[13] = test system: K562/adr, NB4, Kasumi-1 and H9; experiment: Anti-leukemia activity, summary over cell lines; assay type: cell-based, human; conditions: result in words, summary of Table 1
Description: Leukemia cell lines: K562/adr (drug-resistant, chronic myeloid leukemia, CML), NB4 (acute promyelocytic leukemia, AML), Kasumi-1 (acute myeloid leukemia M2 type, AML-M2), Jurkat (acute lymphoblastic leukemia, ALL), all of which are donated by Cancer Research Institute of Zhejiang University, China; and H9 (acute lymphoblastic leukemia, ALL), which is purchased from China Center for Type Culture Collection.
Obtaining 6000 well-growing leukemia cells and inoculating them into wells of a 96-well cell culture plate. The culture medium is the 1640 cell culture medium containing 10% fetal bovine serum. After adding the homoharringtonine derivatives of different concentrations and mixing uniformly, placing the plate in a carbon dioxide cell incubator (5% CO2) at 37° C. and incubating for 72 hours. Then the viable cell concentration is determined by the MTT method. In this experiment, the cell viability in control group (not treated with any compound) is set as 100%.

[14] = test system: MGC 803 (human gastric cancer cell); experiment: MTT solid tumor cell growth inhibition, 72 h; assay type: cell-based; conditions: Homo sapiens, MGC 803, 72 h
Procedure, shortened: as §1

[15] = test system: Hela (human cervical cancer cell); experiment: MTT solid tumor cell growth inhibition, 72 h; assay type: cell-based; conditions: Homo sapiens, HeLa
Procedure, shortened: as §1

[16] = test system: Becap37 (human breast cancer cell); experiment: MTT solid tumor cell growth inhibition, 72 h; assay type: cell-based; conditions: Homo sapiens, Becap37, 72 h
Procedure, shortened: as §1

[17] = test system: Hep-2 (human hepatocellular carcinoma); experiment: MTT solid tumor cell growth inhibition, 72 h; assay type: cell-based; conditions: Homo sapiens, HEp-2, Hep2, 72 h
Procedure, shortened: as §1

[18] = test system: RKO (human colon adenocarcinoma cell); experiment: MTT solid tumor cell growth inhibition, 72 h; assay type: cell-based; conditions: Homo sapiens
Procedure, shortened: as §1

[19] = test system: Huh7 (human liver cancer cell); experiment: MTT solid tumor cell growth inhibition, 72 h; assay type: cell-based; conditions: Homo sapiens, Huh-7, Huh7, 72 h
Procedure, shortened: as §1

A549 (human lung cancer) = experiment: MTT solid tumor cell growth inhibition, 72 h; assay type: cell-based; conditions: Homo sapiens, A549, 72 h
Procedure, shortened: as §1

`COC1=C[C@]23CCCN2CCc2cc4c(cc2[C@@H]3[C@@H]1OC(=O)[C@@](O)(CCCC(C)(C)O)CC(=O)NC1CCCCC1)OCO4` [BS-HH-042, O-3-[(2R)-2,6-dihydroxy-2-(2′-cyclohexaneamino-2′-oxoethyl)-6-methylheptanoyl]cephalotaxine] was tested, and the IC50 ([1]; Homo sapiens, RPMI-8226, RPMI8226, 72 h, read-out: IC50) was 0.042 µg/mL (≈ 0.0685 µM), the IC90 ([1]; Homo sapiens, RPMI-8226, RPMI8226, 72 h, read-out: IC90) was 0.24 µg/mL (≈ 0.392 µM) and the “anti-RPMI8226 (multiple myeloma) effect” value ([1]; result in words, summary of Table 2) was “strong”. It also gave an IC50 ([2]; read-out: IC50) of 0.13 µg/mL (≈ 0.212 µM), an IC90 ([2]; read-out: IC90) of over 16 µg/mL and an IC50 (MG63 (osteosarcoma); read-out: IC50) of 0.12 µg/mL (≈ 0.196 µM). For the same compound, the IC90 (MG63 (osteosarcoma); read-out: IC90) was 16 µg/mL (≈ 26.1 µM), the IC50 ([3]; read-out: IC50) was 0.21 µg/mL (≈ 0.343 µM) and the IC90 ([3]; read-out: IC90) was over 16 µg/mL. For the same compound, the IC50 ([4]; read-out: IC50) was 0.13 µg/mL (≈ 0.212 µM), the IC90 ([4]; read-out: IC90) was over 16 µg/mL and the IC50 ([5]; read-out: IC50) was 0.29 µg/mL (≈ 0.473 µM). It also gave an IC90 ([5]; read-out: IC90) of 16 µg/mL (≈ 26.1 µM), an IC50 (PC-3 (prostate cancer); read-out: IC50) of 0.31 µg/mL (≈ 0.506 µM) and an IC90 (PC-3 (prostate cancer); read-out: IC90) of over 16 µg/mL. For the same compound, the IC50 ([6]; read-out: IC50) was 0.12 µg/mL (≈ 0.196 µM), the IC90 ([6]; read-out: IC90) was 13 µg/mL (≈ 21.3 µM) and the “anti-A549, anti-PANC-1, anti-Becap37, anti-MG63, anti-Huh7, anti-RKO, anti-Hela, anti-CaES-17, anti-CNE, anti-Hep-2, anti-PC-3 and anti-SK-OV-3 effect” value [7] was “strong”. It also gave an IC50 ([8]; read-out: IC50) of 0.048 µg/mL (≈ 0.0783 µM), an IC90 ([8]; read-out: IC90) of 0.21 µg/mL (≈ 0.343 µM) and an IC50 ([9]; read-out: IC50) of 0.04 µg/mL (≈ 0.0653 µM). The IC90 ([9]; read-out: IC90) was 0.1 µg/mL (≈ 0.163 µM), the IC50 ([10]; read-out: IC50) was 3.2 µg/mL (≈ 5.22 µM) and the IC90 ([10]; read-out: IC90) was 16 µg/mL (≈ 26.1 µM). The IC50 ([11]; read-out: IC50) was 0.037 µg/mL (≈ 0.0604 µM), the IC90 ([11]; read-out: IC90) was 16 µg/mL (≈ 26.1 µM) and the IC50 ([12]; read-out: IC50) was 0.06 µg/mL (≈ 0.0979 µM). The IC90 ([12]; read-out: IC90) was 0.13 µg/mL (≈ 0.212 µM), the “anti-K562/adr, anti-NB4, anti-Kasumi-1 and anti-H9 activity” value [13] was “strong” and the IC50 ([14]; read-out: IC50) was 0.096 µg/mL (≈ 0.157 µM). It also gave an IC90 ([14]; read-out: IC90) of 0.25 µg/mL (≈ 0.408 µM), an IC50 ([15]; read-out: IC50) of 0.45 µg/mL (≈ 0.734 µM) and an IC90 ([15]; read-out: IC90) of over 16 µg/mL. For the same compound, the IC50 ([16]; read-out: IC50) was 0.17 µg/mL (≈ 0.277 µM), the IC90 ([16]; read-out: IC90) was over 16 µg/mL and the IC50 ([17]; read-out: IC50) was 0.97 µg/mL (≈ 1.58 µM). It also gave an IC90 ([17]; read-out: IC90) of over 16 µg/mL, an IC50 ([18]; read-out: IC50) of 0.029 µg/mL (≈ 0.0473 µM) and an IC90 ([18]; read-out: IC90) of 0.23 µg/mL (≈ 0.375 µM). For the same compound, the IC50 ([19]; read-out: IC50) was 0.044 µg/mL (≈ 0.0718 µM), the IC90 ([19]; read-out: IC90) was over 16 µg/mL and the IC50 (A549 (human lung cancer); read-out: IC50) was 0.45 µg/mL (≈ 0.734 µM). For the same compound, the IC90 (A549 (human lung cancer); read-out: IC90) was over 16 µg/mL.
